Calls of active or inactive are those of the source.
Tests used:
Format in all cases: functional, cell-based
Settings in all cases: Homo sapiens
PBMC [1] = experiment: Increase in TLR2 protein expression in PBMC from Alzheimer's disease patient at 0.1 uM by flow cytometry
PBMC [2] = experiment: Increase in TLR4 protein expression in PBMC from Alzheimer's disease patient at 0.1 uM by flow cytometry
PBMC [3] = experiment: Increase in TLR3 protein expression in PBMC from Alzheimer's disease patient at 0.1 uM by flow cytometry
Macrophage = experiment: Induction of amyloid beta phagocytosis in macrophages from Alzheimer's disease patient at 0.1 uM
PBMC [4] = experiment: Upregulation of TLR transcription in PBMC from Alzheimer's disease patient
PBMC [5] = experiment: Upregulation of MGAT3 transcription in PBMC from Alzheimer's disease patient

Measured: Activity

O=C(/C=C/c1ccc(O)cc1)CC(=O)/C=C/c1ccc(O)cc1
active: all assays above

From ChEMBL document CHEMBL1147052, “Innate immunity and transcription of MGAT-III and Toll-like receptors in Alzheimer's disease patients are improved by bisdemethoxycurcumin” (Proc Natl Acad Sci U S A, 2007)
